Data: ChEMBL document CHEMBL4422615, “Novel non-xanthine antagonist of the A2B adenosine receptor: From HTS hit to lead structure” (Eur J Med Chem, 2019)

Tests used:
Adenosine receptor A2b [1] = target: T1, Adenosine receptor A2b (Homo sapiens, UniProt P29275); experiment: Antagonist activity at recombinant human A2B adenosine receptor expressed in CHO cells after 3 to 4 hrs by luciferase reporter gene assay; assay type: cell-based
T1 sequence (P29275 whole entry): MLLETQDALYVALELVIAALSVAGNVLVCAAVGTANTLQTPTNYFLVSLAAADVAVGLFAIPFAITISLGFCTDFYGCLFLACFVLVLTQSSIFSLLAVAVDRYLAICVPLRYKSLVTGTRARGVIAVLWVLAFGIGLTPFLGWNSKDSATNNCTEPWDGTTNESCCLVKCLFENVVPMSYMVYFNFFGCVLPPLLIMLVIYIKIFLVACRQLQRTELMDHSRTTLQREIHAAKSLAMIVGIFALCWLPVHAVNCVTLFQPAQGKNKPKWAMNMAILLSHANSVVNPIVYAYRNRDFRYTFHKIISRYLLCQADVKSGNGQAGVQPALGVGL

Adenosine receptor A2b [2] = target: T1, Adenosine receptor A2b; experiment: Displacement of [3H]DPCPX from human A2B adenosine receptor expressed in HEK293 cell membranes after 60 mins by radioligand displacement assay
[3] = Intrinsic clearance in rat hepatocytes by MS/MS analysis; assay type: ADME, cell-based, Hepatocyte; conditions: for predicted hepatic clearance: read-out: CLH (converted)
Cytochrome P450 3A4 [4] = target: T2, Cytochrome P450 3A4 (Homo sapiens, UniProt P08684); experiment: Time dependent inhibition of human liver microsomes CYP3A4 using midazolam as substrate in presence of NADPH by LC-MS/MS analysis; assay type: ADME
[5] = Apparent permeability from apical side to basolateral side in human Caco2 cells; assay type: ADME, cell-based; conditions: Caco-2
[6] = Blood clearance in mouse by measuring intrinsic clearance in mouse liver microsomes by MS/MS analysis; assay type: ADME
[7] = Blood clearance in rat by measuring Intrinsic clearance in rat hepatocytes by MS/MS analysis; assay type: ADME, cell-based
[8] = target: T3, Nuclear receptor subfamily 1 group I member 2 (Homo sapiens, UniProt O75469); experiment: Activation of PXR in human HepG2 cells assessed as induction of CYP3A4 expression by luciferase reporter gene assay; assay type: ADME, cell-based
T3 sequence (O75469 whole entry): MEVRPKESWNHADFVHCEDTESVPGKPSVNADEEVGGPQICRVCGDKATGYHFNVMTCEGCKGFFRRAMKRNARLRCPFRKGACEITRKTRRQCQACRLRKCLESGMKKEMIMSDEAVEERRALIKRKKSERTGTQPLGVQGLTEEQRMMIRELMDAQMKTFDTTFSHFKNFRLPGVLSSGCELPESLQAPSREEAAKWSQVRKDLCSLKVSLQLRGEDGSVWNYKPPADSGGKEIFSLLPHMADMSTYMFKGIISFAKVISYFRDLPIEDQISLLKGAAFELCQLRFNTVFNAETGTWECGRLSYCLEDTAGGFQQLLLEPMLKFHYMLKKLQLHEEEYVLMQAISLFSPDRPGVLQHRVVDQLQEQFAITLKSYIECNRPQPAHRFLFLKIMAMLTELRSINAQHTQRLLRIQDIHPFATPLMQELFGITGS

PXR = target: T4, PXR (Homo sapiens, UniProt O75469); experiment: Activation of PXR in human HepG2 cells assessed as induction of CYP3A4 expression at 2 x 10^-9 to 50 x 10^-6 mol/L by luciferase reporter gene assay relative to control; assay type: ADME, cell-based
T4 sequence (O75469 whole entry): T3 sequence (O75469 whole entry)

[9] = Plasma clearance in mouse; assay type: ADME, organism-based
Cytochrome P450 2D6 = Cytochrome P450 2D6 (Homo sapiens, UniProt P10635); experiment: Inhibition of CYP2D6 in human liver microsomes using dextromethorphan as substrate after 15 mins in presence of NADPH by LC-MS/MS analysis; assay type: ADME
Cytochrome P450 3A4 [10] = target: T2, Cytochrome P450 3A4; experiment: Inhibition of CYP3A4 in human liver microsomes using midazolam as substrate preincubated for 30 mins followed by substrate addition measured after 10 mins in presence of NADPH by LC-MS/MS analysis; assay type: ADME
Cytochrome P450 1A2 = target: T5, Cytochrome P450 1A2 (Homo sapiens, UniProt P05177); experiment: Inhibition of CYP1A2 in human liver microsomes using phenacetin as substrate after 15 mins in presence of NADPH by LC-MS/MS analysis; assay type: ADME
T5 sequence (P05177 whole entry): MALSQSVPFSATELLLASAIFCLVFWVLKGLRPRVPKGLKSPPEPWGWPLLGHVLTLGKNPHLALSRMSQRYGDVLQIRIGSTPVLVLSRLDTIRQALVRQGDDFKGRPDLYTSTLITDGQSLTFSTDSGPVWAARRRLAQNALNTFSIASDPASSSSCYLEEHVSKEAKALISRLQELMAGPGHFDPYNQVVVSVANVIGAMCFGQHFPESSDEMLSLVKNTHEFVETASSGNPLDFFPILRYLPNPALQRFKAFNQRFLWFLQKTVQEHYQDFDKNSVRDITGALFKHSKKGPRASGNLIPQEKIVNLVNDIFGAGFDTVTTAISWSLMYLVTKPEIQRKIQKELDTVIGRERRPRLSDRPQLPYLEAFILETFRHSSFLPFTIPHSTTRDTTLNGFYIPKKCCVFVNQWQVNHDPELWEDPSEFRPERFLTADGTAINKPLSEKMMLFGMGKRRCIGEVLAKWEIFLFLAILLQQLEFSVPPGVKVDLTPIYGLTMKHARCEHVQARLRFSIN

[11] = Efflux ratio in human Caco2 cells; assay type: ADME, cell-based; conditions: Caco-2
Cytochrome P450 2C8 = target: T6, Cytochrome P450 2C8 (Homo sapiens, UniProt P10632); experiment: Inhibition of CYP2C8 in human liver microsomes using amodiaquine as substrate after 15 mins in presence of NADPH by LC-MS/MS analysis; assay type: ADME
T6 sequence (P10632 whole entry): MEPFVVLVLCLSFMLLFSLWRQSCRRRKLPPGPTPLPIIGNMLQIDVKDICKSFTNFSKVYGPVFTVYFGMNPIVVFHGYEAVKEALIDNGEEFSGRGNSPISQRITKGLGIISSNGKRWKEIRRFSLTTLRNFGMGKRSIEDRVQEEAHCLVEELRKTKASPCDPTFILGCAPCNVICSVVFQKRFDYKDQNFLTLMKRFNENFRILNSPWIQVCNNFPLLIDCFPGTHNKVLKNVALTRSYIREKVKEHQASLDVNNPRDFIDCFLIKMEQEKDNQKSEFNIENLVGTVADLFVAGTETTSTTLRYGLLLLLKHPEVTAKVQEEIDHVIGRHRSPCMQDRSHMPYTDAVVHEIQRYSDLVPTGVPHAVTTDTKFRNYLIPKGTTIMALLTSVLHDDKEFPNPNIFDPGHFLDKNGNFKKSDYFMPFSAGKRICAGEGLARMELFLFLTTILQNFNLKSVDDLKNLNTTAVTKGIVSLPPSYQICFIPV

Cytochrome P450 2C9 = Cytochrome P450 2C9 (Homo sapiens, UniProt P11712); experiment: Inhibition of CYP2C9 in human liver microsomes using diclofenac as substrate after 15 mins in presence of NADPH by LC-MS/MS analysis; assay type: ADME
Homo sapiens [12] = species: Homo sapiens; experiment: Selectivity index, ratio of IC50 for human A2A adenosine receptor expressed in HEK293 cell membranes to IC50 for human A2B adenosine receptor expressed in HEK293 cell membranes; assay type: cell-based
Homo sapiens [13] = species: Homo sapiens; experiment: Selectivity index, ratio of IC50 for human A3 adenosine receptor expressed in HEK293 cell membranes to IC50 for human A2B adenosine receptor expressed in HEK293 cell membranes; assay type: cell-based
Homo sapiens [14] = species: Homo sapiens; experiment: Selectivity index, ratio of IC50 for human A1 adenosine receptor expressed in CHO cell membranes to IC50 for human A2B adenosine receptor expressed in HEK293 cell membranes; assay type: cell-based

T2 sequence (P08684 whole entry): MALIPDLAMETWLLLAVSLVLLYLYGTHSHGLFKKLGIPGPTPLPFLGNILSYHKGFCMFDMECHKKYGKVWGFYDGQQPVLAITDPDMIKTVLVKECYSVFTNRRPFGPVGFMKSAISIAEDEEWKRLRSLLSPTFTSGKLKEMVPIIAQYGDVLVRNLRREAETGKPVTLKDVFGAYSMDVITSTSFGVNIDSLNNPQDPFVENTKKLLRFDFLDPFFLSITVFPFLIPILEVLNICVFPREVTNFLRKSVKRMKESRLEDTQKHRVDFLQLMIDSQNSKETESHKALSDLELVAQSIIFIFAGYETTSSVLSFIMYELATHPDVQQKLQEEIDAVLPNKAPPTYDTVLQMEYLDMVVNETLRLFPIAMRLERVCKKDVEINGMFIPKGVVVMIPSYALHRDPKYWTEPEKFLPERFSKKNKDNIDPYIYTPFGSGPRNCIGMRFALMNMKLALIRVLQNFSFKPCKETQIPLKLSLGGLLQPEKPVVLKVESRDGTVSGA
Sequence of Cytochrome P450 2C9 (P11712 whole entry): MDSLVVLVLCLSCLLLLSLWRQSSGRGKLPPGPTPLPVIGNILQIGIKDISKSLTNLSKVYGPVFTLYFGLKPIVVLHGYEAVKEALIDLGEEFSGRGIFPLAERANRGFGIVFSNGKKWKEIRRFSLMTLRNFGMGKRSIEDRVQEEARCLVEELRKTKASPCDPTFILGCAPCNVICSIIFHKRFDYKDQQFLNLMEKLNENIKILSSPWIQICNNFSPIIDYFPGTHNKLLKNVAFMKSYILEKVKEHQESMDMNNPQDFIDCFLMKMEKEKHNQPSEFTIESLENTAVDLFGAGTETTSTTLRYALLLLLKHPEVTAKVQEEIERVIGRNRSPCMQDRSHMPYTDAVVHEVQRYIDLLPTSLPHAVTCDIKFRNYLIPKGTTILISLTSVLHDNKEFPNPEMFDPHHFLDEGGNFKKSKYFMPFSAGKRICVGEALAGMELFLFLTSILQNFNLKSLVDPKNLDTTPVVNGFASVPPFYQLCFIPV
Sequence of Cytochrome P450 2D6 (P10635 whole entry): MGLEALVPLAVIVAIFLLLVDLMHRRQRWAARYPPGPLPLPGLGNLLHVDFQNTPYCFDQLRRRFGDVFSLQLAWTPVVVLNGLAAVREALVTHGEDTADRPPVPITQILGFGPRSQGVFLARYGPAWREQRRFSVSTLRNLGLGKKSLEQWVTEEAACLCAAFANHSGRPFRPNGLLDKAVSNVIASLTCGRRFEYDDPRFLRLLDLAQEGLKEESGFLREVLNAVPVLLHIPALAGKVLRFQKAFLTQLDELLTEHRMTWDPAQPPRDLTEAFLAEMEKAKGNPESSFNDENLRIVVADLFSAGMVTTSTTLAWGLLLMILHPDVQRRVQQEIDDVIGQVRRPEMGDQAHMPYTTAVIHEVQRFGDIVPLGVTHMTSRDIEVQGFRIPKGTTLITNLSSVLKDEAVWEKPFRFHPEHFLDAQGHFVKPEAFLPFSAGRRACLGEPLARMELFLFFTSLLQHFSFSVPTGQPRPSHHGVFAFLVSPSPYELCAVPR

Compound	IC50 (Adenosine receptor A2b [2]) [nM]	predicted hepatic clearance [3] [mL/min/kg]	Ratio IC50 (Homo sapiens [12])	Ratio IC50 (Homo sapiens [13])	Ratio IC50 (Homo sapiens [14])	further results
Cc1csc2c1c(=O)n(CCc1ccccc1)c(=O)n2CC1CCCO1 (racemic)	520	–	–	–	–	EC50 (Adenosine receptor A2b [1]): > 10000 nM
Cc1csc2c1c(=O)n(CCc1ccccc1)c(=O)n2CC1CCCO1 (stereo in doubt; 7)	180	–	–	–	–	CLhep predicted [3]: 66.7 mL/min/kg; TDI (Cytochrome P450 3A4 [4]): Not Active; Papp A→B [5]: 21 ×10⁻⁶ cm/s; CLhep predicted [6]: 81.7 mL/min/kg; CLhep predicted [7]: 66.7 mL/min/kg; MEC [8]: 2 ×10⁻⁶ mol/L; Emax (PXR): 85%; clearance [9]: 43.3 mL/min/kg; IC50 (Cytochrome P450 2D6): > 20000 nM; IC50 (Cytochrome P450 3A4 [10]): 16000 nM; IC50 (Cytochrome P450 1A2): 6500 nM; efflux ratio [11]: 0.69; IC50 (Cytochrome P450 2C8): 10000 nM; IC50 (Cytochrome P450 2C9): 8300 nM
CCN(CC)C(=O)c1sc2c(c1C)c(=O)n(CCOC)c(=O)n2CCC(F)(F)F	97	60	0.83	68	22	–
CCN(CC)C(=O)c1sc2c(c1N)c(=O)n(C)c(=O)n2C	> 10000	53.3	0.73	0.61	0.62	–
COCCn1c(=O)n(CCc2cccnc2)c(=O)c2c(C)csc21	280	61.7	29	23	39	–
COCCn1c(=O)n(CCc2ccccc2)c(=O)c2c(C)c(C(N)=O)sc21	430	65	18	16	8	–
COCCn1c(=O)n(CCc2ccccc2)c(=O)c2c(C)c(C(C)(O)C3CC3)sc21 (configuration not stated)	150	66.7	6	45	2	–

The next molecules have a lower IC50 (Adenosine receptor A2b [2]) than those just listed; values first:

IC50 (Adenosine receptor A2b [2]) [nM]	predicted hepatic clearance [3] [mL/min/kg]	Compound	Ratio IC50 (Homo sapiens [12])	Ratio IC50 (Homo sapiens [13])	Ratio IC50 (Homo sapiens [14])	further results
30	68.3	COCCn1c(=O)n(CCc2ccccc2)c(=O)c2c(C)c(C(O)c3ccccc3)sc21 (configuration not stated)	21	230	1	–
50	40	CCN(CCO)C(=O)c1sc2c(c1C)c(=O)n(CC)c(=O)n2CCC(F)(F)F	21	130	13	–
14	68.3	COCCn1c(=O)n(CCc2ccccc2)c(=O)c2c(C)c(C(O)C3CC3)sc21 (configuration not stated)	11	480	10	–
8.8	61.7	COCCn1c(=O)n(CCc2ccccc2)c(=O)c2c(C)c(Cc3c[nH]c(C)n3)sc21	510	750	110	–
12	58.3	COCCn1c(=O)n(CCc2ccccc2)c(=O)c2c(C)c(Cn3ccnc3)sc21	120	530	33	–
